Like-named read-outs stand apart in the source and are kept apart here. Values belong to the molecule of their own block, whether it stands above or below them.
System: PMA-differentiated THP-1 cells
Assay: IL-1β production in PMA-differentiated THP-1 cells stimulated with gramicidin (hTHP-1 assay containing 2% fetal bovine serum; Procedures 1 and 2)
Assay type: cell-based, human
Method in brief: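 Compound titrations in 0.37% final DMSO were added to THP-1 cells that had been plated after 16-18 h PMA treatment, 50,000 per well in 2% FBS. One hour later the cells received gramicidin (5 μM, 2 h) and were centrifuged. HTRF detected IL-1β in the collected supernatants.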

[1] = Table B1, 2% fetal bovine serum, class symbols, read-out: Average IC50 of compounds in hTHP-1 assay: hTHP-1 IC50
[2] = Homo sapiens, THP-1, Table B2, 2% fetal bovine serum, class symbols, read-out: hTHP-1 IC50
[3] = Homo sapiens, THP-1, Table B2, 2% fetal bovine serum, numeric bounds, read-out: hTHP-1 IC50
[4] = Homo sapiens, THP-1, Table B3, hTHP-1 assay, 2% fetal bovine serum, class symbols, read-out: IC50
[5] = Homo sapiens, THP-1, Table B1, 2% fetal bovine serum, class symbols, read-out: Average IC50 of compounds in hTHP-1 assay: hTHP-1 IC50
[6] = Table B2, 2% fetal bovine serum, class symbols, read-out: hTHP-1 IC50

Compound: Cc1c(C2CC2)nc(C2CC2)c(C)c1NC(=O)N=S(N)(=O)c1cc(C(C)(C)O)cs1 (single isomer, unassigned) [Compound 612b, (R) or (S)-N′-((2,6-dicyclopropyl-3,5-dimethylpyridin-4-yl)carbamoyl)-4-(2-hydroxypropan-2-yl)thiophene-2-sulfonimidamide]
- IC50 [2]: 1 to 5 µM

Compound: CCn1ccc(S(N)(=O)=NC(=O)Nc2c(C)c(C(F)(F)F)nc3c2CCC3)n1 (stereo not drawn) [Compound 731]
- IC50 [2]: 1 to 5 µM

Compound: CC(C)c1cc(NC(=O)N=S(N)(=O)c2cc(C(C)(C)O)cs2)c2c(n1)CCC2 (single isomer, unassigned) [Compound 182b, (R) or (S)-4-(2-Hydroxypropan-2-yl)-N′-((2-isopropyl-6,7-dihydro-5H-cyclopenta[b]pyridin-4-yl)carbamoyl) thiophene-2-sulfonimidamide]
- IC50 [2]: 5 to 30 µM

Compound: CC1CCc2c1nc1c(c2NC(=O)N=S(N)(=O)c2ncc(C(C)(C)O)s2)CCC1 (single isomer, unassigned) [Compound 140b, (S,R/S) or (R,R/S)-5-(2-hydroxypropan-2-yl)-N′-((3-methyl-1,2,3,5,6,7-hexa-hydrodicyclo-penta[b,e]pyridin-8-yl)carbamoyl)thiazole-2-sulfonimidamide]
- IC50 [1]: 5 to 30 µM

Compound: CCn1cc(F)c(S(N)(=O)=NC(=O)Nc2c(-c3ccccc3)cnc3c2CCC3)n1 (single isomer, unassigned) [Example 793, (R) or (S)-1-ethyl-4-fluoro-N′-((3-phenyl-6,7-dihydro-5H-cyclopenta[b]pyridin-4-yl)carbamoyl)-1H-pyrazole-3-sulfonimidamide]
- IC50 (Table B4, 2% fetal bovine serum, class symbols, read-out: hTHP-1 IC50): 0.2 to 1 µM

Compound: CCn1cc(F)c(S(N)(=O)=NC(=O)Nc2c3c(nc4c2CCC42CC2)CCC3)n1 (stereo not drawn) [Example 628, 1-Ethyl-4-fluoro-N′-((1′,5′,6′,7′-tetrahydro-2′H-spiro[cyclopropane-1,3′-dicyclopenta[b,e]pyridin]-8′-yl)carbamoyl)-1H-pyrazole-3-sulfonimidamide]
- IC50 [4]: 0.04 to 0.2 µM

Compound: CC1CCc2c1nc1c(c2NC(=O)N=S(N)(=O)c2cn(C(C)C)cn2)CCC1 (single isomer, unassigned) [Compound 660c, (S, R) or (R, S) or (S, S) or (R, R)-1-Isopropyl-N′-((3-methyl-1,2,3,5,6,7-hexahydrodicyclopenta [b,e]pyridin-8-yl)carbamoyl)-1H-imidazole-4-sulfonimidamide]
- IC50 [3]: > 30 µM

Compound: CC(C)c1cncc(C(C)C)c1NC(=O)N=S(N)(=O)c1cnc(C(C)(C)O)s1 (stereo not drawn) [Compound 160, N′-((3,5-diisopropylpyridin-4-yl)carbamoyl)-2-(2-hydroxypropan-2-yl)thiazole-5-sulfonimidamide]
- IC50 [5]: 5 to 30 µM

Compound: CC1CCc2c1nc1c(c2NC(=O)N=S(N)(=O)c2ccn(C(C)C)n2)CCC1 (stereo not drawn) [Compound 129, 1-isopropyl-N′-((3-methyl-1,2,3,5,6,7-hexahydrodicyclopenta[b,e]pyridin-8-yl)carbamoyl)-1H-pyrazole-3-sulfonimidamide]
- IC50 [5]: 0.2 to 1 µM

Compound: Cc1c(C2CC2)nc(C2CC2)c(C)c1NC(=O)N=S(N)(=O)c1cc(C(C)(C)O)cs1 (single isomer, unassigned) [Compound 612a, (S) or (R)-N′-((2,6-dicyclopropyl-3,5-dimethylpyridin-4-yl)carbamoyl)-4-(2-hydroxypropan-2-yl)thiophene-2-sulfonimidamide]
- IC50 [3]: > 30 µM

Compound: CC(C)n1cc(F)c(S(N)(=O)=NC(=O)Nc2c3c(nc(C(F)(F)F)c2C2CC2)CCC3)n1 (stereo not drawn) [Compound 1104, N′-((3-cyclopropyl-2-(trifluoromethyl)-6,7-dihydro-5H-cyclopenta[b]pyridin-4-yl)carbamoyl)-4-fluoro-1-isopropyl-1H-pyrazole-3-sulfonimidamide]
- IC50 (Homo sapiens, THP-1, read-out: hTHP-1 IC50 in 2% FBS, hTHP-1 assay containing 2% fetal bovine serum, Table B5): 0.2 to 1 µM

Compound: CC1CCc2c1nc1c(c2NC(=O)N=S(N)(=O)c2ccc(CN(C)C)cc2)CCC1 (single isomer, unassigned) [Compound 134ba, (R,R) or (R,S)-4-((dimethyl-amino)methyl)-N′-((3-methyl-1,2,3,5,6,7-hexa-hydrodicyclo-penta[b,e]pyridin-8-yl)carbamoyl)benzene-sulfonimidamide]
- IC50 [5]: 1 to 5 µM

Compound: Cc1c(C(F)(F)F)nc2c(c1NC(=O)N=S(N)(=O)c1cnn3c1OCCC3)CCC2 (single isomer, unassigned) [Example 657, (R) or (S)-N′-((3-((3-2-(trifluoromethyl)-6,7-dihydro-5H-cyclopenta[b]pyridin-4-yl)carbamoyl)-6,7-dihydro-5H-pyrazolo[5,1-b][1,3]oxazine-3-sulfonimidamide]
- IC50 [4]: 1 to 5 µM

Compound: Cc1c(C(F)(F)F)nc2c(c1NC(=O)N=[S@@](N)(=O)c1ccn(C)n1)CCC2 [Compound 730b]
- IC50 [2]: 1 to 5 µM

Compound: CC(C)c1ncc(F)c(C(C)C)c1NC(=O)N=S(N)(=O)c1cc(C(C)(C)O)cs1 (stereo not drawn) [Compound 148, N′-((5-fluoro-2,4-diisopropylpyridin-3-yl)carbamoyl)-4-(2-hydroxypropan-2-yl)thiophene-2-sulfonimidamide]
- IC50 [5]: 0.04 to 0.2 µM

Compound: Cc1c(C(F)(F)F)nc2c(c1NC(=O)N=S(N)(=O)c1cnc(C(C)(C)O)s1)CCC2C (single isomer, unassigned) [Example 705, (S, R) or (S, S)-N′-((3,7-dimethyl-2-(trifluoromethyl)-6,7-dihydro-5H-cyclopenta[b]pyridin-4-yl)carbamoyl)-2-(2-hydroxypropan-2-yl)thiazole-5-sulfonimidamide]
- IC50 [4]: 5 to 30 µM

Compound: C[C@@](O)(CO)c1cc(F)c([S@](N)(=O)=NC(=O)Nc2c3c(nc4c2CCC42CC2)CCC3)s1 [Example 676, (R)-5-((R)-1,2-dihydroxypropan-2-yl)-3-fluoro-N′-((1′,5′,6′,7′-tetrahydro-2′H-spiro[cyclopropane-1,3′-dicyclopenta[b,e]pyridin]-8′-yl)carbamoyl)thiophene-2-sulfonimidamide]
- IC50 [4]: 0.2 to 1 µM

Other lines, results leading:

- IC50 [1]: 0.04 to 0.2 µM
Compound: CC1CCc2c1nc1c(c2NC(=O)N=S(N)(=O)c2cnc(C(C)(C)O)s2)CCC1 (stereo not drawn) [Compound 162, 2-(2-hydroxypropan-2-yl)-N′-((3-methyl-1,2,3,5,6,7-hexahydrodicyclopenta[b,e]pyridin-8-yl)carbamoyl)thiazole-5-sulfonimidamide]

- IC50 [3]: > 30 µM
Compound: CC(C)(O)c1ccc(S(N)(=O)=NC(=O)Nc2c3c(nc4c2CCC4(C)C)CCC3)cn1 (single isomer, unassigned) [Compound 673b, (S) or (R)-N′-((3,3-dimethyl-1,2,3,5,6,7-hexahydrodicyclopenta [b,e]pyridin-8-yl)carbamoyl)-6-(2-hydroxypropan-2-yl)pyridine-3-sulfonimidamide]

- IC50 [2]: 5 to 30 µM
Compound: Cc1c(C2(C)CC2)nc2c(c1NC(=O)N=S(N)(=O)c1cc(C(C)(C)O)cs1)CCC2 (single isomer, unassigned) [Compound 669b, (R) or (S)-4-(2-Hydroxypropan-2-yl)-N′-((3-methyl-2-(1-methylcyclopropyl)-6,7-dihydro-5H-cyclopenta[b]pyridin-4-yl)carbamoyl) thiophene-2-sulfonimidamide]

- IC50 [1]: 1 to 5 µM
Compound: CC(C)(O)c1csc(S(N)(=O)=NC(=O)Nc2c3c(nc4c2CCC42CC2)CCC3)c1 (single isomer, unassigned) [Compound 114b, (S) or (R)-4-(2-hydroxy-propan-2-yl)-N′-((1′,5′,6′,7′-tetrahydro-2′H-spiro[cyclopropane-1,3′-dicyclopenta[b,e]pyridin]-8′-yl)carbamoyl)thiophene-2-sulfonimidamide]

- IC50 [2]: 1 to 5 µM
- IC50 [3]: > 30 µM
Compound: CC1(C)CCc2c1nc1c(c2NC(=O)N=S(N)(=O)c2cnn(C(F)F)c2)CCC1 (single isomer, unassigned) [Compound 637b, (S) or (R)-1-(Difluoromethyl)-N′-((3,3-dimethyl-1,2,3,5,6,7-hexahydrodicyclopenta [b,e]pyridin-8-yl)carbamoyl)-1H-pyrazole-4-sulfonimidamide]

- IC50 [1]: 5 to 30 µM
Compound: Cc1sc(S(N)(=O)=NC(=O)Nc2c3c(nc4c2CCC4(C)C)CCC3)cc1C(C)(C)O (single isomer, unassigned) [Compound 169a, (S) or (R)-N′-((3,3-dimethyl-1,2,3,5,6,7-hexahydro-dicyclopenta[b,e]pyridin-8-yl)carbamoyl)-4-(2-hydroxypropan-2-yl)-5-methylthiophene-2-sulfonimidamide]

- IC50 [6]: 1 to 5 µM
Compound: CC(C)(O)c1cc(Cl)c(S(N)(=O)=NC(=O)Nc2c3c(nc4c2CCC4)CCC3)s1 (single isomer, unassigned) [Compound 691b, (R) or (S)-3-Chloro-N′-((1,2,3,5,6,7-hexahydrodicyclopenta [b,e]pyridin-8-yl)carbamoyl)-5-(2-hydroxypropan-2-yl)thiophene-2-sulfonimidamide]

- IC50 [6]: 5 to 30 µM
Compound: CC(C)(O)c1sc(S(N)(=O)=NC(=O)Nc2c3c(nc4c2CCC4(C)C)CCC3)nc1CO (single isomer, unassigned) [Compound 642a, (S) or (R)-N′-((3,3-dimethyl-1,2,3,5,6,7-hexahydrodicyclopenta [b,e]pyridin-8-yl)carbamoyl)-4-(hydroxymethyl)-5-(2-hydroxypropan-2-yl)thiazole-2-sulfonimidamide]

- IC50 [5]: 0.2 to 1 µM
Compound: CC1Cc2nc3c(c(NC(=O)N=S(N)(=O)c4cnc(C(C)(C)O)s4)c2C1)CCC3 (stereo not drawn) [Compound 152, 2-(2-hydroxypropan-2-yl)-N′-((2-methyl-1,2,3,5,6,7-hexahydrodicyclopenta[b,e]pyridin-8-yl)carbamoyl)thiazole-5-sulfonimidamide]
